Assay results: USRE49850E1, “N-(pyridin-2-yl)-4-(thiazol-5-yl)pyrimidin-2-amine derivatives as therapeutic compounds” (AUCENTRA THERAPEUTICS PTY LTD, priority 2015, dated 2024)

Key:
CDK 2A = CDK 2A (Homo sapiens, UniProt P24941); test: Kinase assay CDK2A (radiometric profiling service); type: biochemical; conditions: for Ki: apparent Ki calculated from Km (ATP) and IC50, read-out: CDK inhibition Ki CDK 2A; for remaining activity at 10 µM: compound at 10 μM, read-out: % remaining enzymatic activity at 10 μM CDK 2A
Protocol: (§1) Eurofins Pharma Discovery or Reaction Biology Corporation Kinase Profiler services were used to measure inhibition of CDKs and other kinases by radiometric assay. Inhibition of CDK4/D1, CDK6/D3 and CDK9/T1 were also determined in-house using ADP Glo Kinase assays (Promega Corporation, Madison, USA). Briefly, the kinase reaction for CDK4/D1 and CDK6/D3 was performed with kinase reaction buffer ([…] Tris base pH 7.5, 20 mM MgCl2, 0.4 mM DTT), 0.1 mg/ml BSA and RB-CTF substrate (retinoblastoma protein1 C-terminal fraction). For CDK9/CyclinT1, the kinase reaction was performed with standard assay buffer and Kinase Dilution Buffer and RBER-IRStide substrate. Serial dilutions of 1:3 were prepared for test compounds for 10 concentrations (from 10 μM to 0.5 nM). The kinase reactions were started by addition of ATP, incubated for 40 min at 37° C. and then stopped by adding 10 μL of ADP Glo reagent. After incubation at room temperature in the dark for 40 min, 20 μL of kinase detection reagent was added per well and incubated for 40 min. Luminescence was measured using an EnVision Multilabel plate reader (PerkinElmer, Buckinghamshire, UK). Positive and negative controls were perfonned in the presence and absence of CDK kinases, respectively. Half-maximal inhibition (IC50) values were calculated using a 4-parameter logistic non-linear regression model with Graphpad prism (Version 6.0). Apparent inhibition constants (Ki) values were calculated from Km (ATP) and IC50 values for the respective kinases.

MV4-11 = test: Cell viability assay (resazurin, leukemia cell line) MV4-11; type: cell-based, human; conditions: Homo sapiens, MV4-11, 72 h; read-out: Anti-proliferative activity GI50 MV4-11
Excerpt: (§2) Compounds from Example 1 were subjected to a standard MTT (3-(4,5-dimethylthiazol-2-yl)-2,5-diphenyltetrazolium bromide) and resazurin assays on solid tumour cell lines and leukemia cell lines, respectively, as previously reported (Wang S et al., J Med Chem 47:1662-1675, 2004 and Diab S. et al. CheMedChem 9:962-972, 2014).

CDK7H = CDK7H (Homo sapiens, UniProt P50613); test: Kinase assay CDK7H (radiometric profiling service); type: biochemical; conditions: for Ki: apparent Ki calculated from Km (ATP) and IC50, read-out: CDK inhibition Ki CDK7H; for remaining activity at 10 µM: compound at 10 μM, read-out: % remaining enzymatic activity at 10 μM CDK7H
Chain of CDK7H (P50613 whole entry): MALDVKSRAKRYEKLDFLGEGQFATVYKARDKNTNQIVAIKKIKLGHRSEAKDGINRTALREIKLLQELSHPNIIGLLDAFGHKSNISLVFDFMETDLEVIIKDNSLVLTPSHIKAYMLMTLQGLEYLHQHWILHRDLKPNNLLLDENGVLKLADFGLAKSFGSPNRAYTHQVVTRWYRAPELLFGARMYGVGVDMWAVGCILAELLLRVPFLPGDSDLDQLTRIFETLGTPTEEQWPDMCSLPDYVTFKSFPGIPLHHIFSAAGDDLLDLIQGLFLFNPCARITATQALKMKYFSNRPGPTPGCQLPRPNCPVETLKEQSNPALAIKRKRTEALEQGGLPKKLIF
Chain of CDK7H (P51946 whole entry partner): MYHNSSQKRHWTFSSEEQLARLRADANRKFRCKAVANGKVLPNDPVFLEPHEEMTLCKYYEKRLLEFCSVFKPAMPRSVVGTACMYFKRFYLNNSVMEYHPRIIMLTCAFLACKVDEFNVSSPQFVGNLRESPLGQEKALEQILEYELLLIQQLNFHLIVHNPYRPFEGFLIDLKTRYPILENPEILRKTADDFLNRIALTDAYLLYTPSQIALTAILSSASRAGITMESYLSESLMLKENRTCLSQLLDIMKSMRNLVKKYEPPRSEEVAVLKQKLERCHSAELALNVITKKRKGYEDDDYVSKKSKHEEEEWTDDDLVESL
Chain of CDK7H (P51948 whole entry partner): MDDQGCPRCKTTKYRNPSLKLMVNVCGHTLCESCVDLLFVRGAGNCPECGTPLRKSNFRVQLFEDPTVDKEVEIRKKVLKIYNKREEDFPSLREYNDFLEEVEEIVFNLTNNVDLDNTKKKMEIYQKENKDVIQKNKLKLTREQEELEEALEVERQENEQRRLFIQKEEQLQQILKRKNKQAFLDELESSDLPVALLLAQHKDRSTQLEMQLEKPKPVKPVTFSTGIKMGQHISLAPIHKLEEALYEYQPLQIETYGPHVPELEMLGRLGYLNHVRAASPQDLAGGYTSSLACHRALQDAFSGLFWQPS
Protocol: as §1

CDK9T1 = biological target: T1, CDK9T1 (Homo sapiens, UniProt P50750); test: Kinase assay CDK9/T1 (radiometric or ADP Glo); type: biochemical; conditions: for Ki: apparent Ki calculated from Km (ATP) and IC50, read-out: CDK inhibition Ki CDK9T1; for remaining activity at 10 µM: compound at 10 μM, read-out: % remaining enzymatic activity at 10 μM CDK9T1
T1 construct: purchased Eurofins Pharma Discovery or Reaction Biology Corporation (service)
T1 sequence (P50750 whole entry): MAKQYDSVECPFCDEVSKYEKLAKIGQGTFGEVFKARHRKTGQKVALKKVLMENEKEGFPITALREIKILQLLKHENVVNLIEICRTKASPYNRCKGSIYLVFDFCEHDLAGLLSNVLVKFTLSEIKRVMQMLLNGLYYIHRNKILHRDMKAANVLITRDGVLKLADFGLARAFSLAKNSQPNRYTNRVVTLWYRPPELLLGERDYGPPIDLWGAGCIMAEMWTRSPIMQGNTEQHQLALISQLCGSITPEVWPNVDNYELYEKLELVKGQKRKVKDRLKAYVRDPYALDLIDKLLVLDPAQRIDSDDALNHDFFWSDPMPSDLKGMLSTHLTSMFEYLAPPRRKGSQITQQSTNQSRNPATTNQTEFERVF
T1 sequence (O60563 whole entry partner): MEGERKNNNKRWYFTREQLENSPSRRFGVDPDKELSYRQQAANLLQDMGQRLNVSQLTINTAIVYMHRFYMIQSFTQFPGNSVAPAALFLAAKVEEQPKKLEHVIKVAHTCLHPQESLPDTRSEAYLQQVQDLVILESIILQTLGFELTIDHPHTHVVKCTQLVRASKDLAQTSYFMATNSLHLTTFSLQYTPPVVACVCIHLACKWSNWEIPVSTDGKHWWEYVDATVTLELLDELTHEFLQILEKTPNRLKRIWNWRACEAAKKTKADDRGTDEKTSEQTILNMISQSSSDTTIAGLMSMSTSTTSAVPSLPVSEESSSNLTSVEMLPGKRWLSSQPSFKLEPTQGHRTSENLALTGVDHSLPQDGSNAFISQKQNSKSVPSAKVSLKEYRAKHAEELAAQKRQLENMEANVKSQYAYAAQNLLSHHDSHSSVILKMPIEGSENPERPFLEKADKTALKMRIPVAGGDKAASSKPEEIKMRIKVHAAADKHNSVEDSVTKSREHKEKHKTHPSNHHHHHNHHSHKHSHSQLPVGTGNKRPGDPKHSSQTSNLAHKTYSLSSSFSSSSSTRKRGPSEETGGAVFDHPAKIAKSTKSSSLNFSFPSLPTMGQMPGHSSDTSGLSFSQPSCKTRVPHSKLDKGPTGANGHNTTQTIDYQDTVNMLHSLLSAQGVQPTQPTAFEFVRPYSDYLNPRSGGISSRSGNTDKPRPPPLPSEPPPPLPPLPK
Protocol: as §1

CDK4D1 = biological target: T2, CDK4D1 (Homo sapiens, UniProt P11802); test: Kinase assay CDK4/D1 (radiometric or ADP Glo); type: biochemical; conditions: apparent Ki calculated from Km (ATP) and IC50; read-out: CDK inhibition Ki CDK4D1
T2 construct: purchased Eurofins Pharma Discovery or Reaction Biology Corporation (service)
T2 sequence (P11802 whole entry): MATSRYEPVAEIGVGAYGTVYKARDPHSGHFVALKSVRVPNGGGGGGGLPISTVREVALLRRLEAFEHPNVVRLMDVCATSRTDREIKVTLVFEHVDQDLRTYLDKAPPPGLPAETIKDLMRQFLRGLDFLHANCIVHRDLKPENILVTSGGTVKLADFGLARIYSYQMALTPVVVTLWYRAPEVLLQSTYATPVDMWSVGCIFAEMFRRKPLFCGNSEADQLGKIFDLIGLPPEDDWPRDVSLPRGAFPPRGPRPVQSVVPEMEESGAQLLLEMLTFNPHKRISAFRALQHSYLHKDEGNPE
T2 sequence (P24385 whole entry partner): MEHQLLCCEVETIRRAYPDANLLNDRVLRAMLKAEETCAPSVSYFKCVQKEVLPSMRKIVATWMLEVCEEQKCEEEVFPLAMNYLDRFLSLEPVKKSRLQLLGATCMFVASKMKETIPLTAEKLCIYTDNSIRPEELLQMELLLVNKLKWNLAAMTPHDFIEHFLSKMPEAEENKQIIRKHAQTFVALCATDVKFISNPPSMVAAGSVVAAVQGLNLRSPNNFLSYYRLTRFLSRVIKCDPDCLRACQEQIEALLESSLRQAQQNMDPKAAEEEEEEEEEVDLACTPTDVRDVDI
Protocol: as §1

MDA-MB-453 = test: Cell viability assay (MTT, solid tumour cell line) MDA-MB-453; type: cell-based, human; conditions: Homo sapiens, MDA-MB-453, 72 h; read-out: Anti-proliferative activity GI50 MDA-MB-453
Excerpt: as §2

CDK1B = CDK1B (Homo sapiens, UniProt P06493); test: Kinase assay CDK1B (radiometric profiling service); type: biochemical; conditions: for Ki: apparent Ki calculated from Km (ATP) and IC50, read-out: CDK inhibition Ki CDK1B; for remaining activity at 10 µM: compound at 10 μM, read-out: % remaining enzymatic activity at 10 μM CDK1B
Chain of CDK1B (P06493 whole entry): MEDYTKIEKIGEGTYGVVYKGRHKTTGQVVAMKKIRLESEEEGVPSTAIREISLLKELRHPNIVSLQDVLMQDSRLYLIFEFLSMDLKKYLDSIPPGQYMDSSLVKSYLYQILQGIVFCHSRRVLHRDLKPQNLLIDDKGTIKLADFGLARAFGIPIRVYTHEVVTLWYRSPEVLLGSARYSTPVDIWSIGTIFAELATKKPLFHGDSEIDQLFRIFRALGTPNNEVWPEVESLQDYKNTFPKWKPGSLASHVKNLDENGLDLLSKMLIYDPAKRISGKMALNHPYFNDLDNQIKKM
Chain of CDK1B (P14635 whole entry partner): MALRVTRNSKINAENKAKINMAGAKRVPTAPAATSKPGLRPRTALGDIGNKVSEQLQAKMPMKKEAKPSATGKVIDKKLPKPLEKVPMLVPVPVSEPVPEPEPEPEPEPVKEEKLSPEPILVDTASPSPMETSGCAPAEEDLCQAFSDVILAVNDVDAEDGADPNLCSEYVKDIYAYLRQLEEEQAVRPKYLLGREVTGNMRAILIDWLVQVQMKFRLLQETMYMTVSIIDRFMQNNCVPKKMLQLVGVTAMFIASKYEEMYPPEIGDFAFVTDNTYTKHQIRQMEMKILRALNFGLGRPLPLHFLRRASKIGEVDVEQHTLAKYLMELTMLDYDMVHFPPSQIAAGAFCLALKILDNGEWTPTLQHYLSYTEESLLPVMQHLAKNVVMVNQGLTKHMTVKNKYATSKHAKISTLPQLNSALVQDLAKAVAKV
Protocol: as §1

CDK6D3 = biological target: T3, CDK6D3 (Homo sapiens, UniProt Q00534); test: Kinase assay CDK6/D3 (radiometric or ADP Glo); type: biochemical; conditions: for Ki: apparent Ki calculated from Km (ATP) and IC50, read-out: CDK inhibition Ki CDK6D3; for remaining activity at 10 µM: compound at 10 μM, read-out: % remaining enzymatic activity at 10 μM CDK6D3
T3 construct: purchased Eurofins Pharma Discovery or Reaction Biology Corporation (service)
T3 sequence (Q00534 whole entry): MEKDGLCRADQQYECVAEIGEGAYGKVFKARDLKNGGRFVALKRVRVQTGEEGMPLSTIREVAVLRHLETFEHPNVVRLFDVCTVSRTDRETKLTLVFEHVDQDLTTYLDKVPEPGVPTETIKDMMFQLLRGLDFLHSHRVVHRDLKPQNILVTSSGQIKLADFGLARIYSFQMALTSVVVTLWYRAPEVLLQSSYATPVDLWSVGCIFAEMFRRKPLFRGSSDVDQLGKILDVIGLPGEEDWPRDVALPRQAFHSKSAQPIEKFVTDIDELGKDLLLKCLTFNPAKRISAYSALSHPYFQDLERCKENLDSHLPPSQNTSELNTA
T3 sequence (P30281 whole entry partner): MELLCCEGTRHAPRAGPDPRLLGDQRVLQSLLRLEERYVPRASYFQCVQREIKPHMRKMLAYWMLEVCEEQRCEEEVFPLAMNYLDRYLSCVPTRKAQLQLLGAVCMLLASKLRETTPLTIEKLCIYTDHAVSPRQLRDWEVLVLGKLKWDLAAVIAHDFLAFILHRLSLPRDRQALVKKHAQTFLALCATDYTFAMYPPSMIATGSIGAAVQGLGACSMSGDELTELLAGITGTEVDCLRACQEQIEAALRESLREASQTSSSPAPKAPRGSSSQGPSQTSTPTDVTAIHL
Protocol: as §1

SMILES | Ki (CDK 2A) [µM] | GI50 (MV4-11) [µM] | Ki (CDK7H) [µM] | Ki (CDK9T1) [µM] | Ki (CDK4D1) [µM] | GI50 (MDA-MB-453) [µM] | Ki (CDK1B) [µM] | Ki (CDK6D3) [µM] | remaining activity at 10 µM (CDK 2A) [%] | remaining activity at 10 µM (CDK7H) [%] | remaining activity at 10 µM (CDK9T1) [%] | remaining activity at 10 µM (CDK1B) [%] | remaining activity at 10 µM (CDK6D3) [%]
CCc1nc(C)c(-c2ccnc(Nc3ccc(N4CCN(C(C)=O)CC4)cn3)n2)s1 [Compound 10, 1-(4-(6-((4-(2-ethyl-4-methylthiazol-5-yl)pyrimidin-2-yl)amino)pyridin-3-yl)piperazin-1-yl)ethan-1-one] | > 5 | 5.37 ± 1.69 | > 5 | > 5 | 0.29 | > 10 | > 5 | – | – | – | – | – | –
CCc1nc(C)c(-c2nc(Nc3ccc(N4CCN(C(C)=O)CC4)cn3)ncc2Cl)s1 [Compound 11, 1-(4-(6-((5-chloro-4-(2-ethyl-4-methylthiazol-5-yl)pyrimidin-2-yl)amino)pyridin-3-yl)piperazin-1-yl)ethan-1-one] | > 5 | > 10 | > 5 | > 5 | 0.25 | > 10 | > 5 | – | – | – | – | – | –
CCc1nc(C)c(-c2ccnc(Nc3ccc(N4CCOCC4)cn3)n2)s1 [Compound 12, 4-(2-Ethyl-4-methylthiazol-5-yl)-N-(5-morpholinopyridin-2-yl)pyrimidin-2-amine] | 2.34 | 5.29 ± 0.811 | > 5 | > 5 | 0.18 | > 10 | > 5 | – | – | – | – | – | –
CNc1nc(C)c(-c2ccnc(Nc3ccc(N4CCNCC4)cn3)n2)s1 [Compound 26, N,4-dimethyl-5-(2-((5-(piperazin-1-yl)pyridin-2-yl)amino)pyrimidin-4-yl)thiazol-2-amine] | 0.889 | 0.259 ± 0.241 | > 5 | 2.85 | 0.006 | – | > 5 | 0.114 | – | – | – | – | –
CNc1nc(C)c(-c2nc(Nc3ccc(N4CCNCC4)cn3)ncc2C#N)s1 [Compound 27, 4-(4-methyl-2-(methylamino)thiazol-5-yl)-2-((5-(piperazin-1-yl)pyridin-2-yl)amino)pyrimidine-5-carbonitrile] | – | 0.014 ± 0.006 | – | – | 0.001 | – | – | 0.04 | 34 | 39 | 11 | 56 | –
CNc1nc(C)c(-c2nc(Nc3ccc(N4CCN(C)CC4)cn3)ncc2C#N)s1 [Compound 30, 4-(4-methyl-2-(methylamino)thiazol-5-yl)-2-((5-(4-methylpiperazin-1-yl)pyridin-2-yl)amino)pyrimidine-5-carbonitrile] | – | 0.056 ± 0.004 | – | – | 0.004 | – | – | 0.032 | 36 | 43 | 9 | 66 | –
CNc1nc(C)c(-c2ccnc(Nc3ccc(N4CCOCC4)cn3)n2)s1 [Compound 36, N,4-dimethyl-5-(2-((5-morpholinopyridin-2-yl)amino)pyrimidin-4-yl)thiazol-2-amine] | 0.459 | 0.643 ± 0.018 | > 5 | > 5 | 0.02 | – | > 5 | 0.61 | – | – | – | – | –
CNc1nc(C)c(-c2nc(Nc3ccc(N4CCOCC4)cn3)ncc2C#N)s1 [Compound 37, 4-(4-methyl-2-(methylamino)thiazol-5-yl)-2-((5-morpholinopyridin-2-yl)amino)pyrimidine-5-carbonitrile] | 0.201 | 0.465 ± 0.129 | > 5 | > 5 | 0.004 | – | > 5 | 0.064 | – | – | – | – | –
CNc1nc(C)c(-c2ccnc(Nc3ccc(N4CCN(Cc5ccccc5)CC4)cn3)n2)s1 [Compound 39, 5-(2-((5-(4-benzylpiperazin-1-yl)pyridin-2-yl)amino)pyrimidin-4-yl)-N,4-dimethylthiazol-2-amine] | > 5 | 45.9 ± 2.52 | > 5 | > 5 | 0.169 | – | > 5 | 2.71 | – | – | – | – | –
Cc1nc(N(C)C)sc1-c1nc(Nc2ccc(N3CCOCC3)cn2)ncc1F [Compound 50, 5-(5-fluoro-2-((5-morpholinopyridin-2-yl)amino)pyrimidin-4-yl)-N,N,4-trimethylthiazol-2-amine] | 0.069 | 4.67 ± 0.298 | > 5 | > 5 | 0.044 | 5.36 ± 0.501 | > 5 | – | – | – | – | – | –
CCN1CCN(c2ccc(Nc3nccc(-c4sc(NC5CCCC5)nc4C)n3)nc2)CC1 [Compound 66, N-cyclopentyl-5-(2-((5-(4-ethylpiperazin-1-yl)pyridin-2-yl)amino)pyrimidin-4-yl)-4-methylthiazol-2-amine] | – | 0.009 ± 0.001 | 0.78 | – | – | 0.287 ± 0.07 | 3.02 | – | – | – | – | – | –
Cc1nc(NC2CCCC2)sc1-c1nc(Nc2ccc(N3CCOCC3)cn2)ncc1F [Compound 72] | – | – | > 5 | > 5 | – | 1.44 ± 0.304 | – | – | – | – | – | – | –
Cc1nc(N(C)C2CCCC2)sc1-c1ccnc(Nc2ccc(N3CCNCC3)cn2)n1 [Compound 85, N-cyclopentyl-N,4-dimethyl-5-(2-((5-(piperazin-1-yl)pyridin-2-yl)amino)pyrimidin-4-yl)thiazol-2-amine] | 0.174 | 0.285 ± 0.041 | – | 1.8 | 0.002 | 0.402 ± 0.006 | 1.39 | 0.01 | – | – | – | – | –
Cc1nc(N(C2CCCC2)C2CCCC2)sc1-c1ccnc(Nc2ccc(N3CCNCC3)cn2)n1 [Compound 88, N,N-dicyclopentyl-4-methyl-5-(2-((5-(piperazin-1-yl)pyridin-2-yl)amino)pyrimidin-4-yl)thiazol-2-amine] | > 5 | 0.714 ± 0.179 | > 5 | > 5 | – | 0.373 ± 0.117 | > 15 | – | – | – | – | – | –
Cc1nc(Nc2ccccc2)sc1-c1ccnc(Nc2ccc(N3CCNCC3)cn2)n1 [Compound 89, 4-Methyl-N-phenyl-5-(2-((5-(piperazin-1-yl)pyridin-2-yl)amino)pyrimidin-4-yl)thiazol-2-amine] | > 5 | 0.056 ± 0.011 | – | 0.436 | 0.005 | 0.279 ± 0.044 | 2.04 | 0.066 | – | – | – | – | –
CC(=O)N1CCN(c2ccc(Nc3nccc(-c4sc(=O)[nH]c4C)n3)nc2)CC1 [Compound 95, 5-(2-((5-(4-acetylpiperazin-1-yl)pyridin-2-yl)amino)pyrimidin-4-yl)-4-methylthiazol-2(3H)-one] | – | 2.24 ± 0.043 | – | – | – | > 10 | – | – | 40 | 68 | 17 | 55 | 25
Cc1c(-c2ccnc(Nc3ccc(N4CCNCC4)cn3)n2)sc(=O)n1C1CCCC1 [Compound 96, 3-cyclopentyl-4-methyl-5-(2-((5-(piperazin-1-yl)pyridin-2-yl)amino)pyrimidin-4-yl)thiazol-2(3H)-one] | – | 0.792 ± 0.074 | – | – | – | 2.86 ± 0.988 | – | – | 61 | 22 | 15 | 63 | 11
Cc1[nH]c(=O)sc1-c1ccnc(Nc2ccc(N3CCNCC3)cn2)n1 [Compound 97, 4-methyl-5-(2-((5-(piperazin-1-yl)pyridin-2-yl)amino)pyrimidin-4-yl)thiazol-2(3H)-one] | – | 1.51 ± 0.802 | – | – | – | > 10 | – | – | 54 | 24 | 3 | 58 | 12
